Results taken from patent US9963445B2, “Chemical compounds” (SYNGENTA PARTICIPATIONS AG, priority 2013, dated 2018).

Tested on: Alopecurus myosuroides
Test: Post-emergence herbicidal activity, glasshouse pot test
Type: in vivo
Design: key: 0 = no damage to plant, 5 = total damage to plant
Conditions: Application post-emergence, rate 1000 g/ha, evaluated after 13 days
In short: (§1)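 After 8 days of glasshouse growth at 24/16 °C day/night, potted plants receive a foliar spray of the formulated compound (0.5% Tween 20 in acetone/water). They are then watered twice daily under unchanged conditions, and phytotoxicity is scored 0–5 after 13 days.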

| Compound | ALOMY herbicidal damage score |
| --- | --- |
| COC1=C(C)C(O)N(c2cc(C(C)F)ccn2)C1=O (stereo not drawn) [AI17] | 5 |
| CCOC(=O)c1cnc(N2C(=O)C(OC)=C(C)C2O)cc1Cl (stereo not drawn) [AI19] | 1 |
| CCc1cc(N2C(=O)C(OC)=C(C)C2O)ncc1Br (stereo not drawn) [AI22] | 4 |
| COC1=C(C)C(O)N(c2cc(F)ccn2)C1=O (stereo not drawn) [AI23] | 5 |
| COC1=C(C)C(O)N(c2ccc(C(=O)NC(C)(C)C)cn2)C1=O (stereo not drawn) [AI24] | 4 |
| COC1=C(C)C(O)N(c2ccc(C(=O)NC(C)(C)C#N)cn2)C1=O (stereo not drawn) [AI25] | 5 |

Tested on: Abutilon theophrasti
Test: as above
Type: in vivo
Design: key: 0 = no damage to plant, 5 = total damage to plant
Conditions: Application post-emergence, rate 1000 g/ha, evaluated after 13 days
In short: as §1

| Compound | ABUTH herbicidal damage score |
| --- | --- |
| COC1=C(C)C(O)N(c2cc(C(C)F)ccn2)C1=O (stereo not drawn) [AI17] | 5 |
| CCOC(=O)c1cnc(N2C(=O)C(OC)=C(C)C2O)cc1Cl (stereo not drawn) [AI19] | 4 |
| CCc1cc(N2C(=O)C(OC)=C(C)C2O)ncc1Br (stereo not drawn) [AI22] | 4 |
| COC1=C(C)C(O)N(c2cc(F)ccn2)C1=O (stereo not drawn) [AI23] | 5 |
| COC1=C(C)C(O)N(c2ccc(C(=O)NC(C)(C)C)cn2)C1=O (stereo not drawn) [AI24] | 4 |
| COC1=C(C)C(O)N(c2ccc(C(=O)NC(C)(C)C#N)cn2)C1=O (stereo not drawn) [AI25] | 5 |

Tested on: zea mays
Test: as above
Type: in vivo
Design: key: 0 = no damage to plant, 5 = total damage to plant
Conditions: Application post-emergence, rate 1000 g/ha, evaluated after 13 days
In short: as §1

| Compound | ZEAMX herbicidal damage score |
| --- | --- |
| COC1=C(C)C(O)N(c2cc(C(C)F)ccn2)C1=O (stereo not drawn) [AI17] | 3 |
| CCOC(=O)c1cnc(N2C(=O)C(OC)=C(C)C2O)cc1Cl (stereo not drawn) [AI19] | 1 |
| CCc1cc(N2C(=O)C(OC)=C(C)C2O)ncc1Br (stereo not drawn) [AI22] | 1 |
| COC1=C(C)C(O)N(c2cc(F)ccn2)C1=O (stereo not drawn) [AI23] | 3 |
| COC1=C(C)C(O)N(c2ccc(C(=O)NC(C)(C)C)cn2)C1=O (stereo not drawn) [AI24] | 4 |
| COC1=C(C)C(O)N(c2ccc(C(=O)NC(C)(C)C#N)cn2)C1=O (stereo not drawn) [AI25] | 3 |

Tested on: Setaria faberi
Test: as above
Type: in vivo
Design: key: 0 = no damage to plant, 5 = total damage to plant
Conditions: Application post-emergence, rate 1000 g/ha, evaluated after 13 days
In short: as §1

| Compound | SETFA herbicidal damage score |
| --- | --- |
| COC1=C(C)C(O)N(c2cc(C(C)F)ccn2)C1=O (stereo not drawn) [AI17] | 5 |
| CCOC(=O)c1cnc(N2C(=O)C(OC)=C(C)C2O)cc1Cl (stereo not drawn) [AI19] | 5 |
| CCc1cc(N2C(=O)C(OC)=C(C)C2O)ncc1Br (stereo not drawn) [AI22] | 5 |
| COC1=C(C)C(O)N(c2cc(F)ccn2)C1=O (stereo not drawn) [AI23] | 5 |
| COC1=C(C)C(O)N(c2ccc(C(=O)NC(C)(C)C)cn2)C1=O (stereo not drawn) [AI24] | 5 |
| COC1=C(C)C(O)N(c2ccc(C(=O)NC(C)(C)C#N)cn2)C1=O (stereo not drawn) [AI25] | 5 |

Tested on: Echinochloa crus-galli
Test: as above
Type: in vivo
Design: key: 0 = no damage to plant, 5 = total damage to plant
Conditions: Application post-emergence, rate 1000 g/ha, evaluated after 13 days
In short: as §1

| Compound | ECHCG herbicidal damage score |
| --- | --- |
| COC1=C(C)C(O)N(c2cc(C(C)F)ccn2)C1=O (stereo not drawn) [AI17] | 5 |
| CCOC(=O)c1cnc(N2C(=O)C(OC)=C(C)C2O)cc1Cl (stereo not drawn) [AI19] | 3 |
| CCc1cc(N2C(=O)C(OC)=C(C)C2O)ncc1Br (stereo not drawn) [AI22] | 5 |
| COC1=C(C)C(O)N(c2cc(F)ccn2)C1=O (stereo not drawn) [AI23] | 5 |
| COC1=C(C)C(O)N(c2ccc(C(=O)NC(C)(C)C)cn2)C1=O (stereo not drawn) [AI24] | 5 |
| COC1=C(C)C(O)N(c2ccc(C(=O)NC(C)(C)C#N)cn2)C1=O (stereo not drawn) [AI25] | 5 |

Tested on: Amaranthus retroflexus
Test: as above
Type: in vivo
Design: key: 0 = no damage to plant, 5 = total damage to plant
Conditions: Application post-emergence, rate 1000 g/ha, evaluated after 13 days
In short: as §1

| Compound | AMARE herbicidal damage score |
| --- | --- |
| COC1=C(C)C(O)N(c2cc(C(C)F)ccn2)C1=O (stereo not drawn) [AI17] | 5 |
| CCOC(=O)c1cnc(N2C(=O)C(OC)=C(C)C2O)cc1Cl (stereo not drawn) [AI19] | 5 |
| CCc1cc(N2C(=O)C(OC)=C(C)C2O)ncc1Br (stereo not drawn) [AI22] | 5 |
| COC1=C(C)C(O)N(c2cc(F)ccn2)C1=O (stereo not drawn) [AI23] | 5 |
| COC1=C(C)C(O)N(c2ccc(C(=O)NC(C)(C)C)cn2)C1=O (stereo not drawn) [AI24] | 5 |
| COC1=C(C)C(O)N(c2ccc(C(=O)NC(C)(C)C#N)cn2)C1=O (stereo not drawn) [AI25] | 5 |

Tested on: Alopecurus myosuroides
Test: Pre-emergence herbicidal activity, glasshouse pot test
Type: in vivo
Conditions: pre-emergence spray, rate 1000 g/ha, evaluated after 13 days, scale 0-5
In short: (§2)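 Test species were sown in pots and, after one day under controlled glasshouse conditions, treated with an aqueous spray of the active ingredient in acetone/water containing 0.5% Tween 20. Evaluation followed 13 days later, scoring plant damage from 0 (none) to 5 (total).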

| Compound | ALOMY damage score, application pre-emergence |
| --- | --- |
| COC1=C(C)C(O)N(c2cc(C(C)F)ccn2)C1=O (stereo not drawn) [AI17] | 4 |
| CCOC(=O)c1cnc(N2C(=O)C(OC)=C(C)C2O)cc1Cl (stereo not drawn) [AI19] | 1 |
| CCc1cc(N2C(=O)C(OC)=C(C)C2O)ncc1Br (stereo not drawn) [AI22] | 3 |
| COC1=C(C)C(O)N(c2cc(F)ccn2)C1=O (stereo not drawn) [AI23] | 3 |
| COC1=C(C)C(O)N(c2ccc(C(=O)NC(C)(C)C)cn2)C1=O (stereo not drawn) [AI24] | 3 |
| COC1=C(C)C(O)N(c2ccc(C(=O)NC(C)(C)C#N)cn2)C1=O (stereo not drawn) [AI25] | 4 |

Tested on: Abutilon theophrasti
Test: as above
Type: in vivo
Conditions: pre-emergence spray, rate 1000 g/ha, evaluated after 13 days, scale 0-5
In short: as §2

| Compound | ABUTH damage score, application pre-emergence |
| --- | --- |
| COC1=C(C)C(O)N(c2cc(C(C)F)ccn2)C1=O (stereo not drawn) [AI17] | 5 |
| CCOC(=O)c1cnc(N2C(=O)C(OC)=C(C)C2O)cc1Cl (stereo not drawn) [AI19] | 0 |
| CCc1cc(N2C(=O)C(OC)=C(C)C2O)ncc1Br (stereo not drawn) [AI22] | 1 |
| COC1=C(C)C(O)N(c2cc(F)ccn2)C1=O (stereo not drawn) [AI23] | 1 |
| COC1=C(C)C(O)N(c2ccc(C(=O)NC(C)(C)C)cn2)C1=O (stereo not drawn) [AI24] | 4 |
| COC1=C(C)C(O)N(c2ccc(C(=O)NC(C)(C)C#N)cn2)C1=O (stereo not drawn) [AI25] | 4 |

Tested on: zea mays
Test: as above
Type: in vivo
Conditions: pre-emergence spray, rate 1000 g/ha, evaluated after 13 days, scale 0-5
In short: as §2

| Compound | ZEAMX damage score, application pre-emergence |
| --- | --- |
| COC1=C(C)C(O)N(c2cc(C(C)F)ccn2)C1=O (stereo not drawn) [AI17] | 4 |
| CCOC(=O)c1cnc(N2C(=O)C(OC)=C(C)C2O)cc1Cl (stereo not drawn) [AI19] | 0 |
| CCc1cc(N2C(=O)C(OC)=C(C)C2O)ncc1Br (stereo not drawn) [AI22] | 1 |
| COC1=C(C)C(O)N(c2cc(F)ccn2)C1=O (stereo not drawn) [AI23] | 1 |
| COC1=C(C)C(O)N(c2ccc(C(=O)NC(C)(C)C)cn2)C1=O (stereo not drawn) [AI24] | 1 |
| COC1=C(C)C(O)N(c2ccc(C(=O)NC(C)(C)C#N)cn2)C1=O (stereo not drawn) [AI25] | 2 |

Tested on: Setaria faberi
Test: as above
Type: in vivo
Conditions: pre-emergence spray, rate 1000 g/ha, evaluated after 13 days, scale 0-5
In short: as §2

| Compound | SETFA damage score, application pre-emergence |
| --- | --- |
| COC1=C(C)C(O)N(c2cc(C(C)F)ccn2)C1=O (stereo not drawn) [AI17] | 5 |
| CCOC(=O)c1cnc(N2C(=O)C(OC)=C(C)C2O)cc1Cl (stereo not drawn) [AI19] | 1 |
| CCc1cc(N2C(=O)C(OC)=C(C)C2O)ncc1Br (stereo not drawn) [AI22] | 2 |
| COC1=C(C)C(O)N(c2cc(F)ccn2)C1=O (stereo not drawn) [AI23] | 4 |
| COC1=C(C)C(O)N(c2ccc(C(=O)NC(C)(C)C)cn2)C1=O (stereo not drawn) [AI24] | 4 |
| COC1=C(C)C(O)N(c2ccc(C(=O)NC(C)(C)C#N)cn2)C1=O (stereo not drawn) [AI25] | 4 |

Tested on: Echinochloa crus-galli
Test: as above
Type: in vivo
Conditions: pre-emergence spray, rate 1000 g/ha, evaluated after 13 days, scale 0-5
In short: as §2

| Compound | ECHCG damage score, application pre-emergence |
| --- | --- |
| COC1=C(C)C(O)N(c2cc(C(C)F)ccn2)C1=O (stereo not drawn) [AI17] | 5 |
| CCOC(=O)c1cnc(N2C(=O)C(OC)=C(C)C2O)cc1Cl (stereo not drawn) [AI19] | 2 |
| CCc1cc(N2C(=O)C(OC)=C(C)C2O)ncc1Br (stereo not drawn) [AI22] | 4 |
| COC1=C(C)C(O)N(c2cc(F)ccn2)C1=O (stereo not drawn) [AI23] | 5 |
| COC1=C(C)C(O)N(c2ccc(C(=O)NC(C)(C)C)cn2)C1=O (stereo not drawn) [AI24] | 4 |
| COC1=C(C)C(O)N(c2ccc(C(=O)NC(C)(C)C#N)cn2)C1=O (stereo not drawn) [AI25] | 3 |

Tested on: Amaranthus retroflexus
Test: as above
Type: in vivo
Conditions: pre-emergence spray, rate 1000 g/ha, evaluated after 13 days, scale 0-5
In short: as §2

| Compound | AMARE damage score, application pre-emergence |
| --- | --- |
| COC1=C(C)C(O)N(c2cc(C(C)F)ccn2)C1=O (stereo not drawn) [AI17] | 5 |
| CCOC(=O)c1cnc(N2C(=O)C(OC)=C(C)C2O)cc1Cl (stereo not drawn) [AI19] | 2 |
| CCc1cc(N2C(=O)C(OC)=C(C)C2O)ncc1Br (stereo not drawn) [AI22] | 5 |
| COC1=C(C)C(O)N(c2cc(F)ccn2)C1=O (stereo not drawn) [AI23] | 5 |
| COC1=C(C)C(O)N(c2ccc(C(=O)NC(C)(C)C)cn2)C1=O (stereo not drawn) [AI24] | 5 |
| COC1=C(C)C(O)N(c2ccc(C(=O)NC(C)(C)C#N)cn2)C1=O (stereo not drawn) [AI25] | 5 |
